Laboratory results: US20250353936A1, “CHEMICALLY MODIFIED HEPARIN” (IHP Therapeutics Inc., priority 2022, published 2025)

Legend:
[1] = tested on: BxPC3-luc, clone 1F11 cells; assay: Gemcitabine sparing pancreatic cancer model, subcutaneous BxPC3-luc tumors; format: in vivo, female NSG mice; conditions: Compound C 10 mg/kg BID s.c., gemcitabine 25 mg/kg QW i.p., day 7 through day 70; FIG. 4
Procedure: Methods: Pancreatic cancer tumors were generated by subcutaneous injection of 100 μL of BxPC3-luc, clone 1F11 cells (1×10^6) in matrigel into the right flank of female NSG mice. Tumors were allowed to grow for 7 days prior to initiating treatment. At day 7 post-implant, mice were randomized into treatment groups (n=5/group) and treatment was initiated per dose route and regimen as described below:
Gemcitabine (Gem) at a low sensitizing dose was administered 25 mg/kg QW by intraperitoneal route. Compound C was administered 10 mg/kg BID by subcutaneous route. Treatments were administered from day 7 through day 70.
Body weight and tumor volume by caliper was measured weekly. At day 70 imaging was performed by administering 150 mg/kg luciferin and measuring whole body […] by IVIS imaging system. Tumors and organs were then harvested and imaged ex vivo.

P-selectin = assay: P-selectin-mediated HL-60 cell binding to immobilized P-selectin/Fc chimera; format: cell-based; conditions: HL-60 cells, best-fit values
Procedure: 96 well plates were coated with 10 μg/mL Protein A overnight, then blocked with 2% FBS for 1 hour. 2 μg/mL P-selectin/Fc chimera was bound to the Protein A for 3 hours at 4° C. HL-60 cells (2e5 cells/well, CMFDA labeled) were then layered onto the P-selectin and allowed to bind for 1 hour at room temperature. Wells were treated concurrently with test samples to determine inhibitory binding activity. After 1 hour, unbound cells were washed and bound cells lysed in a 1% Triton-X solution and read on a Fluorimeter at 480/520 nm.

| Compound | tumor growth inhibition (tumor volume by caliper) [1] | P-sel IC50 (P-selectin) |
| --- | --- | --- |
| Nc1ccn([C@@H]2O[C@H](CO)[C@@H](O)C2(F)F)c(=O)n1 [Gemcitabine] | no effect on tumor growth | – |
| enoxaparin | – | 64.72 µg/mL |
